According to patent USRE38257E1, “Piperdine derivatives and hypotensives containing the same” (Ajinomoto Co., Inc., priority 1988, dated 2003):

Tested on: male spontaneously hypertensive rats
Experiment: Decrease in systolic blood pressure in spontaneously hypertensive rats after intravenous bolus injection, indirect (tail-cuff) method
Assay type: in vivo, rat
Settings: for Decrease in systolic blood pressure (mmHg) time after administration (hour) 0.5: 0.5 hour after administration; for Decrease in systolic blood pressure (mmHg) time after administration (hour) 4: 4 hours after administration
Procedure: As test animals, four male spontaneously hypertensive rats (weight 400 to 440 g) that were sufficiently adapted for feeding and in which hypertension was confirmed were used.
Physiological saline aqueous solution containing 2.5% Nicolle and 2.5% ethanol of sample was intravenously administered by bolus injection at a dose of 1 ml per 1 kg of body weight. Systolic blood pressure after administration was measured by the indirect (tail-cuff) method.

| Molecule | Decrease in systolic blood pressure (mmHg) time after administration (hour) 0.5 (dose 10 mg/kg i.v. bolus) [mmHg] | Decrease in systolic blood pressure (mmHg) time after administration (hour) 4 (dose 10 mg/kg i.v. bolus) [mmHg] | further results |
| --- | --- | --- | --- |
| Cl.Cl.Nc1ccccc1CCCN1CCC(=C2c3ccccc3C=Cc3ccccc32)CC1 [Example 251, 1-(2-Aminophenyl)-3-(4-(5H-Dibenzo[a,d]cyclohepten-5-ylidene)-1-piperidinyl)propane dihydrochloride] | −110 | −24 | – |
| C1=Cc2ccccc2C(=C2CCN(CCCCc3ccc[nH]3)CC2)c2ccccc21.Cl [Example 293, 4-(4-(5H-Dibenzo[a,d]cyclohepten-5-ylidene)-1-piperidinyl)-1-(2-pyrolle)-1-butane hydrochloride] | −122 | 4 | – |
| COC(=O)Nc1ccc(C=CCN2CCC(=C3c4ccccc4C=Cc4ccccc43)CC2)cc1.Cl [Example 378, 4-(5H-Dibenzo[a,d]cyclohepten-5-ylidene)-1-(4-methoxycarbonylaminocinnamyl)piperidine hydrochloride] | – | – | Decrease in systolic blood pressure (mmHg) time after administration (hour) 0.5 (dose 1 mg/kg i.v. bolus): −106 mmHg; Decrease in systolic blood pressure (mmHg) time after administration (hour) 4 (dose 1 mg/kg i.v. bolus): −90 mmHg |
| C1=Cc2ccccc2C(=C2CCN(Cc3cccnc3)CC2)c2ccccc21.Cl.Cl [Example 162, 4-(5H-Dibenzo[a,d]cyclohepten-5-ylidene)-1-(3-Picolyl)piperidine dihydrochloride] | −62 | −3 | – |
| O=C(O)C(CCN1CCC(=C2c3ccccc3C=Cc3ccccc32)CC1)C1CCCCC1 (centres unmarked) [Example 238, 2-Cyclohexyl-4-(4-(5H-dibenzo[a,d]cyclohepten-5-ylidene)-1-piperidinyl)butyric acid] | −14 | −5 | – |
| 5-(4-(5H-Dibenzo[a,d]cyclohepten-5-ylidene)-1-piperidinyl-2-(3,4-dimethoxyphenyl)valeronitrile hydrochloride [Example 123] | −55 | −7 | – |
| COc1ccc(C2(CCCN3CCC(=C4c5ccccc5C=Cc5ccccc54)CC3)OCCO2)cc1OC.Cl [Example 222] | −94 | −5 | – |
| 4-(4-(5H-Dibenzo[a,d]cyclohepten-5-ylidene)-1-piperidinyl)-3′,4′-dimethoxybutyrophenone N-oxide [Example 271] | −17 | −13 | – |
| Cl.Cl.Nc1cccc(CCCN2CCC(=C3c4ccccc4C=Cc4ccccc43)CC2)c1 [Example 315, 1-(3-Aminophenyl)-3-(4-(5H-dibenzo[a,d]cyclohepten-5-ylidene)-1-piperidinyl)propane dihydrochloride] | −43 | −3 | – |
| C1=Cc2ccccc2C(=C2CCN(CCCCCCCC3CCCCC3)CC2)c2ccccc21.Cl [Example 155, 1-Cyclohexyl-7-(4-(5H-dibenzo[a,d]cyclohepten-5-ylidene)-1-piperidinyl)heptane hydrochloride] | −131 | −105 | – |
| Cl.O=C(CCCN1CCC(=C2c3ccccc3C=Cc3ccccc32)CC1)N1CCc2ccccc2C1 [Example 204, N-(4-(4-(5H-Dibenzo[a,d]cyclohepten-5-ylidene)-1-piperidinyl)butanoyl)-1,2,3,4-tetrahydroisoquinoline hydrochloride] | −141 | −84 | – |
| Cl.O=C(NCCN1CCCCC1=C1c2ccccc2C=Cc2ccccc21)c1ccccc1[N+](=O)[O-] [Example 291, N-(2-(5H-Dibenzo[a,d]cyclohepten-5-ylidene)-1-piperidinyl)ethyl-2-nitrobenzamide hydrochloride] | – | – | Decrease in systolic blood pressure (mmHg) time after administration (hour) 0.5 (dose 3 mg/kg i.v. bolus): −8 mmHg; Decrease in systolic blood pressure (mmHg) time after administration (hour) 4 (dose 3 mg/kg i.v. bolus): 15 mmHg |
| CC(=O)Nc1cccc(CCCN2CCC(=C3c4ccccc4C=Cc4ccccc43)CC2)c1.Cl [Example 316, 1-(3-Acetylaminophenyl)-3-(4-(5H-dibenzo[a,d]cyclohepten-5-ylidene)-1-piperidinyl)propane hydrochloride] | – | – | Decrease in systolic blood pressure (mmHg) time after administration (hour) 0.5 (dose 1 mg/kg i.v. bolus): −100 mmHg; Decrease in systolic blood pressure (mmHg) time after administration (hour) 4 (dose 1 mg/kg i.v. bolus): 8 mmHg |
| Cl.O=[N+]([O-])c1ccccc1CCCCN1CCC(=C2c3ccccc3C=Cc3ccccc32)CC1 [Example 255, 4-(4-(5H-Dibenzo[a,d]cyclohepten-5-ylidene)-1-piperidinyl)-1-(2-nitrophenyl)butane hydrochloride] | −62 | 2 | – |
| Cl.OC(CCN1CCC(=C2c3ccccc3C=Cc3ccccc32)CC1)c1ccc(F)cc1 (centres unmarked) [Example 107, 3-(4-(5H-Dibenzo[a,d]cyclohepten-5-ylidene)-1-piperidinyl)-1-hydroxy-1-(4-fluorophenyl)propane hydrochloride] | −88 | −11 | – |
| COc1ccc(CCCCN2CCC(=C3c4ccccc4C=Cc4ccccc43)CC2)cc1NC(C)=O.Cl [Example 282, 1-(3-Acetylamino-4-methoxyphenyl)-4-(4-(5H-dibenzo[a,d]cyclohepten-5-ylidene)-1-piperidinyl)butane hydrochloride] | −72 | −15 | – |
| Cc1ccc(CN2CCC(=C3c4ccccc4C=Cc4ccccc43)CC2)cc1.Cl [Example 133, 4-(5H-Dibenzo[a,d]cyclohepten-5-ylidene)-1-(4-methylbenyl)piperidine hydrochloride] | – | – | Decrease in systolic blood pressure (mmHg) time after administration (hour) 0.5 (dose 3 mg/kg i.v. bolus): −146 mmHg; Decrease in systolic blood pressure (mmHg) time after administration (hour) 4 (dose 3 mg/kg i.v. bolus): −84 mmHg |
| COc1ccc(CN2CCC(=C3c4ccccc4C=Cc4ccccc43)CC2)cc1OC.Cl [Example 174, 4-(5H-Dibenzo[a,d]cyclohepten-5-ylidene)-1-(3,4-dimethoxybenzyl)piperidine hydrochloride] | −8 | −16 | – |
| Cl.OC(CCCN1CCC(=C2c3ccccc3C=Cc3ccccc32)CC1)c1ccccc1 (centres unmarked) [Example 101, 4-(4-(5H-Dibenzo[a,d]cyclohepten-5-ylidene)-1-piperidinyl)-1-hydroxy-1-phenylbutane hydrochloride] | −89 | −14 | – |
| C(=Cc1ccccc1)CN1CCC(=C2c3ccccc3C=Cc3ccccc32)CC1.Cl [Example 38, 1-Cinnamyl-4-(5H-dibenzo[a, d]cyclohepten-5-ylidene)piperidine hydrochloride] | −140 | −76 | – |
| CCCCCCCCCC(=O)N1CCC(=C2c3ccccc3C=Cc3ccccc32)CC1 [Example 164, 1-Decanolyl-4-(5H-dibenzo[a,d]cyclohepten-5-ylidene)piperidine] | −91 | −22 | – |
| 2,6-Dimethyl-4-(4-(4-(5H-dibenzo[a,d]cyclohepten-5-ylidene)-1-piperidinyl)butyl)-5-methyl-1,4-dihydropyrydine-3,5-dicarboxylate hydrochloride [Example 285] | −62 | −7 | – |
| COc1cccc(CN2CCC(=C3c4ccccc4C=Cc4ccccc43)CC2)c1OC.Cl [Example 173, 4-(5H-Dibenzo[a,d]cyclohepten-5-ylidene)-1-(2,3-dimethoxybenzyl)piperidine hydrochloride] | −98 | −25 | – |
| Cl.N#Cc1cccc(CN2CCC(=C3c4ccccc4C=Cc4ccccc43)CC2)c1 [Example 159, 1-(3-Cyanobenzyl)-4-(5H-dibenzo[a,d]cyclohepten-5-ylidene)piperidine hydrochloride] | −27 | −12 | – |
| CCOC(=O)C1CCN(C(=O)CCCN2CCC(=C3c4ccccc4C=Cc4ccccc43)CC2)CC1.Cl [Example 217, 1-(4-(4-(5H-Dibenzo[a,d]cyclohepten-5-ylidene)-1-piperidinyl)butanoyl)-4-ethoxyxarbonpiperidine hydrochloride] | −18 | −20 | – |
